Entries after “also recorded” stand apart in the source; their conditions may differ.
Key:
[1] = target: T1, mBCO2 (Mus musculus, UniProt Q99NF1); assay: Acyl-RAC assay of mBCO2 palmitoylation in HEK293F cells; assay type: cell-based; details: for mBCO2 palmitoylation (protein band in HAM-treated sample): HEK293F cells, 5 h
T1 construct: expressed in transfected cells; host or cells: HEK293F (Human 293F FreeStyle) cells
T1 sequence (Q99NF1 1-532): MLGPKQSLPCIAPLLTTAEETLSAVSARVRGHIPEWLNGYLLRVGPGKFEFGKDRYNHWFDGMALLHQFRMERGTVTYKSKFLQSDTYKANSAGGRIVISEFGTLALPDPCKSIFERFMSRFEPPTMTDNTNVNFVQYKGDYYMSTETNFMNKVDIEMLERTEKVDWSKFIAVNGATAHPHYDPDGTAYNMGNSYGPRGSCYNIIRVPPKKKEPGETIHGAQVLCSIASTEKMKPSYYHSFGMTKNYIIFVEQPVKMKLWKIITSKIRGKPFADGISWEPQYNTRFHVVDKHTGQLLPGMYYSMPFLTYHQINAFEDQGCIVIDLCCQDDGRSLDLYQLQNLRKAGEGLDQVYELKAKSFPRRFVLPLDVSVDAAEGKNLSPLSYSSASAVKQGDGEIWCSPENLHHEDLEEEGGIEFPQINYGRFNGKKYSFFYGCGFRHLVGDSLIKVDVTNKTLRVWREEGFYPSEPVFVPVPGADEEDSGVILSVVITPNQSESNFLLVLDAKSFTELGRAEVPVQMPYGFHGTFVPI
Description: previously published protocol. Briefly, a typical transfection experiment used 3×10^7 cells in 28 mL of FreeStyle medium mixed with 2 mL of OptiMem-I reduced serum medium containing 40 μL 293fectin transfection reagent (Invitrogen) and 20 μg of each expression plasmid under study. Cells were grown with shaking at 125 rpm on an orbital shaker platform in a 37° C. incubator with a humidified atmosphere of 8% CO2 for 48 h total. In total, 200 μl of vesicles with xanthophylls were added, incubating for 5 hr under standard growth conditions.
For cell lysis and the Acyl-RAC assay, the same protocol as previously described in detail, with slight modifications, was used. BCO2-overexpressing HEK293F cells were washed with 1X-PBS and resuspended in lysis buffer (50 mM HEPES (pH 7.4) containing 150 mM NaCl, 5 mM EDTA, 1% glycerol, and 1× complete protease inhibitor cocktail (Roche Diagnostics)). Resuspended cells were lysed using N2 cavitation followed by centrifugation at 900×g for 10 min at 4° C. to remove the cell debris and nuclei. The clarified supernatant was then subjected to centrifugation at 20,000×g for 30 min at 4° C. to obtain heavy membrane (mitochondrial) pellet and post-mitochondrial supernatant (light membrane and cytosol) fractions. Typically, a 1000 μg amount of resuspended heavy membrane pellet protein (resuspended in lysis buffer containing 0.1% Triton X-100) was used for palmitoylation detection assay. Briefly, free cysteine sulfhydryl (—SH) groups were blocked with 0.5% (v/v) S-methyl methanethiosulfonate (MMTS) containing blocking buffer for 15 min at 40 ° C. The blocked protein samples were then subjected to acetone protein precipitation. The protein pellet was then resuspended in 550 μl 100 mM HEPES containing 5 mM EDTA and 1% SDS (v/v). The samples were then divided into two 250 μl aliquots (containing 400 μg protein amount) and the remaining 50 μl was used as an input. The samples were treated with 250 mM hydroxylamine (NH2OH, HAM) or control (250 mM NaCl). To capture proteins with free —SH groups, each sample was mixed with 10 mg activated thiol-sepharose 4B beads (Sigma) and incubated for 2 h at room temperature with continuous end-over-end rotation. After incubation, the beads were washed, and bound proteins were eluted by boiling the beads with an aliquot of 50 μL elution sample buffer. The input and eluted fractions from “HAM” and “control” samples were separated by SDS-PAGE and analyzed by Western blotting.
(§1) It was previously established that mBCO2 in eukaryotic HEK293F cells is palmitoylated. […] Knowing that BCO2 cleaves xanthophylls, palmitoylation assays were ran to study the palmitoylation status of mBCO2 in the presence of xanthophylls. First, xanthophylls were attempted to be delivered with the detergent Tween 40 [50]. […] Therefore, a new method to deliver xanthophylls without detergents using unilamellar LUVs as described above was established. The content of xanthophylls in the HEK293F cells after 5 h of treatment was similar to a Tween 40 delivery system in ARPE-19 cells (1-2%) (FIG. 9A-9B). Subsequently, the acyl-RAC method was used as described previously. The membrane fraction of HEK293F cells expressing mBCO2 was subjected to treatment with hydroxylamine (+HAM) and an equal portion of the fraction was treated with 250 mM NaCl (−HAM) which served as control.

[2] = Spectroscopic (UV/Vis) determination of the concentration of xanthophylls in LUVs; assay type: physicochemical
Description: The concentrations of xanthophylls were measured using a 2 mm optical path quartz cell in an Agilent Cary 60 UV-Vis spectrophotometer. To measure the concentration of xanthophylls in LUVs, a 10 μL aliquot is mixed with 300 μL of DMF. Standards and samples were measured at least 3 times and the data were averaged.

[3] = system: HEK293F cells; assay: Tween 40 delivery: effect on HEK293F cells; assay type: cell-based, human; details: higher concentration of Tween 40 (0.1%)
Source text: as §1

[4] = target: T1, mBCO2; details: HEK293F cells, earlier work [34]; cited from earlier work
[5] = target: T1, mBCO2; details: earlier work [34]; cited from earlier work
[6] = target: T1, mBCO2; assay: Immunocolocalization of mBCO2 in COS7 cells by confocal microscopy; assay type: cell-based; details: for percent of colocalization of mBCO2 with nuclear marker: 5 h, lutein 0.15 μM, violaxanthin 0.6 μM, compared with zeaxanthin 0.45 μM
Description: BCO2-overexpressing COS7 cells (1×10^6 cells/mL) seeded on poly L-lysine coated 18 mm coverslips were analyzed by immunofluorescence microscopy to determine the localization of BCO2 protein in different subcellular organelles as described previously. Briefly, COS7 cells were transfected with 20 μg of BCO2-Lumio V5 tag plasmid using Fugene® 6 transfection reagent (1:6 DNA: Fugene 6 ratio). After 43 h, BCO2-transfected cells were treated with substrate-encapsulated LUVs for 5 h. Fixed cells were immunostained with V5 monoclonal and polyclonal antibodies alone and together with primary antibodies specific for different subcellular organelles (ER (PDIA3), Golgi (MAN2A1), mitochondria (COX IV and HSP60), and peroxisomes (PMP70)), followed by Alexa fluorophore-conjugated secondary antibodies (Invitrogen). Cell nuclei were stained with DAPI (1 μg/μL solution; Sigma). Slides were then visualized with a Zeiss LSM 700 confocal microscope using a 40× oil immersion lens/1.4-NA and Zeiss ZEN software. Pearson's correlation coefficient values were determined for analysis of the co-localization of BCO2 protein and different organelles and represented as mean±standard deviation. For nuclear co-localization of BCO2 protein, the Pearson's correlation coefficient of BCO2 with DAPI-stained nuclei was measured using the results from three independent experiments: single labeling of BCO2 “alone”, double labeling of BCO2 with mitochondrial markers COX IV and HSP60. Results shown were typical of a minimum of three independent experiments with 5-10 fields of view containing on average 1-10 cells/field of view.
Next, BCO2 localization by immunofluorescence microscopy was examined using mBCO2 transfected COST cells with various organellar markers (for mitochondria, peroxisomes, endoplasmic reticulum (ER), and Golgi). It was confirmed that V5 tag antibodies recognize specifically mBCO2-V5 protein in transfected HEK293F cells (FIG. 12A-12F). For nuclear labeling, DAPI nuclear stain was used. […]

For `CC1=C(/C=C/C(C)=C/C=C/C(C)=C/C=C/C=C(C)/C=C/C=C(C)/C=C/C2=C(C)C[C@@H](O)CC2(C)C)C(C)(C)C[C@H](O)C1` [zeaxanthin], the “mBCO2 palmitoylation (protein band in HAM-treated sample)” value ([1]; 0.45 μM, DPPC/DPPS-encapsulated) was “residual mBCO2 palmitoylation is seen in some samples”, the “final concentration of xanthophyll in LUVs measured by UV/Vis” value (“final concentration of xanthophyll” for short) ([2]; DMPC/DMPS LUVs) was 0.14 g/L and the “final concentration of xanthophyll” value ([2]; DPPC/DPPS LUVs) was 0.038 g/L.
In the case of Tween 40 [reference compound], the “effect on mBCO2 membrane association in Acyl-RAC assay” value ([1]; lower concentration of Tween 40 (0.01%)) is reported as “eluted mBCO2 from membranes during the Acyl-RAC assay even without hydroxylamine treatment” and the “effect on HEK293F cells” value [3] is reported as “led to HEK293F cell apoptosis”.
For `CC1=C(/C=C/C(C)=C/C=C/C(C)=C/C=C/C=C(C)/C=C/C=C(C)/C=C/C2=C(C)CCCC2(C)C)C(C)(C)CCC1` [β-carotene], the “mBCO2 palmitoylation in presence of substrate” value [4] is given as “loses palmitoylation” and the “mBCO2 colocalization with the nuclear DAPI stain” value [5] is given as “mBCO2 colocalization with the nuclear DAPI stain was observed”.
With `CC(/C=C/C=C(C)/C=C/[C@@]12O[C@]1(C)C[C@@H](O)CC2(C)C)=C\C=C\C=C(C)\C=C\C=C(C)\C=C\[C@@]12O[C@]1(C)C[C@@H](O)CC2(C)C` [violaxanthin] the “mBCO2 palmitoylation (protein band in HAM-treated sample)” value ([1]; 0.6 μM, DMPC/DMPS-encapsulated) was “residual mBCO2 palmitoylation is seen in some samples”, the “final concentration of xanthophyll” value ([2]; DMPC/DMPS LUVs) was 0.07 g/L and the “percent of colocalization of mBCO2 with nuclear marker” value [6] was “higher”.
In the case of `CC1=C[C@H](O)CC(C)(C)[C@H]1/C=C/C(C)=C/C=C/C(C)=C/C=C/C=C(C)/C=C/C=C(C)/C=C/C1=C(C)C[C@@H](O)CC1(C)C` [lutein], the “mBCO2 palmitoylation (protein band in HAM-treated sample)” value ([1]; 0.06 μM lutein in DMPC/DMPS) is reported as “no protein band was detected in the HAM-treated sample; also recorded: residual mBCO2 palmitoylation is seen in some samples”, the “mBCO2 palmitoylation (protein band in HAM-treated sample)” value ([1]; 0.15 μM lutein in DMPC/DMPS) is reported as “no protein band was detected in the HAM-treated sample” and the “final concentration of xanthophyll” value ([2]; DMPC/DMPS LUVs) is reported as 0.0125 g/L. For the same compound, the “percent of colocalization of mBCO2 with nuclear marker” value [6] was “higher” and the “percent colocalization of BCO2 in the nucleus” value ([6]; lower concentration of lutein (0.06 μM) versus 0.15 μM) was “decreased in a lutein concentration-dependent manner”.

Source: US20240165029A1, “ASSISTED LOADING OF HYDROPHOBIC MOLECULES INTO LIPOSOMES” (UNIVERSITY OF CONNECTICUT, priority 2021, published 2024)
